Reference: article PMC8800111 (The Journal of Biological Chemistry, 2021)

Key:
Format in all cases: cell-based
[1] = biological target: proteins of U3A human fibrosarcoma cells (4462 proteins detected) (Homo sapiens, UniProt P32320); details: protein CDA, U3A cells
[2] = biological target: proteins of U3A human fibrosarcoma cells (4462 proteins detected) (Homo sapiens, UniProt Q8TAQ2); details: protein SMARCC2; soluble abundance after heat, U3A cells
[3] = biological target: proteins of U3A human fibrosarcoma cells (4462 proteins detected) (Homo sapiens, UniProt Q9H3N1); details: protein TMX1; U3A cells
[4] = biological target: proteins of U3A human fibrosarcoma cells (4462 proteins detected) (Homo sapiens, UniProt Q8NCN4); details: protein RNF169, U3A cells
[5] = biological target: proteins of U3A human fibrosarcoma cells (4462 proteins detected) (Homo sapiens, UniProt A0MZ66); details: protein KIAA1598; U3A, 10 μM, 2 h
[6] = biological target: proteins of U3A human fibrosarcoma cells (4462 proteins detected) (Homo sapiens, UniProt Q8TBF4); details: protein ZCRB1; soluble abundance after heat, U3A cells
[7] = biological target: proteins of U3A human fibrosarcoma cells (4462 proteins detected) (Homo sapiens, UniProt P21266); details: protein GSTM3, U3A cells
[8] = biological target: proteins of U3A human fibrosarcoma cells (4462 proteins detected) (Homo sapiens, UniProt Q9NVA2); details: protein SEPT11, U3A cells
[9] = biological target: proteins of U3A human fibrosarcoma cells (4462 proteins detected) (Homo sapiens, UniProt O15066); details: protein KIF3B; U3A cells
[10] = biological target: proteins of U3A human fibrosarcoma cells (4462 proteins detected) (Homo sapiens, UniProt Q5T2R2); details: protein PDSS1; U3A cells
[11] = biological target: proteins of U3A human fibrosarcoma cells (4462 proteins detected) (Homo sapiens, UniProt P49459); details: protein UBE2A, U3A cells
[12] = biological target: proteins of U3A human fibrosarcoma cells (4462 proteins detected) (Homo sapiens, UniProt P39748); details: protein FEN1; U3A, 10 μM, 2 h
[13] = biological target: proteins of U3A human fibrosarcoma cells (4462 proteins detected) (Homo sapiens, UniProt Q9Y608); details: protein LRRFIP2, U3A cells
[14] = biological target: proteins of U3A human fibrosarcoma cells (4462 proteins detected) (Homo sapiens, UniProt Q9NSV4); details: protein DIAPH3, U3A cells
[15] = biological target: proteins of U3A human fibrosarcoma cells (4462 proteins detected) (Homo sapiens, UniProt P49458); details: protein SRP9, U3A cells
[16] = biological target: proteins of U3A human fibrosarcoma cells (4462 proteins detected) (Homo sapiens, UniProt P00519); details: protein ABL1; U3A cells
[17] = biological target: proteins of U3A human fibrosarcoma cells (4462 proteins detected) (Homo sapiens, UniProt Q9BY32); details: protein ITPA; soluble abundance after heat, U3A cells
[18] = biological target: proteins of U3A human fibrosarcoma cells (4462 proteins detected) (Homo sapiens, UniProt P00374); details: 10 μM, 2 h
[19] = biological target: proteins of U3A human fibrosarcoma cells (4462 proteins detected) (Homo sapiens, UniProt Q13303); details: protein KCNAB2, U3A cells
[20] = biological target: proteins of U3A human fibrosarcoma cells (4462 proteins detected) (Homo sapiens, UniProt Q8IWX8); details: protein CHERP; soluble abundance after heat, U3A cells
[21] = biological target: proteins of U3A human fibrosarcoma cells (4462 proteins detected) (Homo sapiens, UniProt Q9NVR2); details: protein INTS10; U3A cells
[22] = biological target: proteins of U3A human fibrosarcoma cells (4462 proteins detected) (Homo sapiens, UniProt Q99873); details: protein PRMT1, U3A cells
[23] = biological target: proteins of U3A human fibrosarcoma cells (4462 proteins detected) (Homo sapiens, UniProt P29034); details: protein S100A2, U3A cells
[24] = biological target: proteins of U3A human fibrosarcoma cells (4462 proteins detected) (Homo sapiens, UniProt P00568); details: protein AK1, U3A cells
[25] = biological target: proteins of U3A human fibrosarcoma cells (4462 proteins detected) (Homo sapiens, UniProt O95983); details: protein MBD3; U3A cells
[26] = biological target: proteins of U3A human fibrosarcoma cells (4462 proteins detected) (Homo sapiens, UniProt Q96EY8); details: protein MMAB; U3A cells
[27] = biological target: proteins of U3A human fibrosarcoma cells (4462 proteins detected) (Homo sapiens, UniProt Q8N5G2); details: protein TMEM57; U3A cells
[28] = biological target: proteins of U3A human fibrosarcoma cells (4462 proteins detected) (Homo sapiens, UniProt Q9NTW7); details: protein ZFP64, U3A cells
[29] = biological target: proteins of U3A human fibrosarcoma cells (4462 proteins detected) (Homo sapiens, UniProt Q9HB71); details: protein CACYBP; U3A cells
[30] = biological target: proteins of U3A human fibrosarcoma cells (4462 proteins detected) (Homo sapiens, UniProt Q13217); details: protein DNAJC3; soluble abundance after heat, U3A cells
Chain of proteins of U3A human fibrosarcoma cells (4462 proteins detected) (Homo sapiens, UniProt Q13217) (Q13217 32-504): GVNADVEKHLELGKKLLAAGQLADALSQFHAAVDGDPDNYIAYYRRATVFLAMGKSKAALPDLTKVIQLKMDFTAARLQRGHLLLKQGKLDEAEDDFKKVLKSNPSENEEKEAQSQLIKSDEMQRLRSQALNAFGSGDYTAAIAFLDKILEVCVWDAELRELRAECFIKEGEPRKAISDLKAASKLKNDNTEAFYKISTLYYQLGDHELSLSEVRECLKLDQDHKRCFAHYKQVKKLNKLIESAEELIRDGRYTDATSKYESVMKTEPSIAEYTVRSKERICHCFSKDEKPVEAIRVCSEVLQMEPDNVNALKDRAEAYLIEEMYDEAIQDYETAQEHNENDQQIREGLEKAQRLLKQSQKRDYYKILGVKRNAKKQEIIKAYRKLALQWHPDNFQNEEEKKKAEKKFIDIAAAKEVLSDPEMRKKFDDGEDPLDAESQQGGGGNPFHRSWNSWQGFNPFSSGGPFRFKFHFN

Chain of proteins of U3A human fibrosarcoma cells (4462 proteins detected) (Homo sapiens, UniProt P00374) (P00374 whole entry): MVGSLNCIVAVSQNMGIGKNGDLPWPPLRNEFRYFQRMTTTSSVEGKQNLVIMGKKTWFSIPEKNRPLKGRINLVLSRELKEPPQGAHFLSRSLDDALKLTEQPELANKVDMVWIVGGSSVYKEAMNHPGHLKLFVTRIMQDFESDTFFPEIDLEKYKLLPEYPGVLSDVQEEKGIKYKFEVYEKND
Chain of proteins of U3A human fibrosarcoma cells (4462 proteins detected) (Homo sapiens, UniProt P00519) (P00519 whole entry): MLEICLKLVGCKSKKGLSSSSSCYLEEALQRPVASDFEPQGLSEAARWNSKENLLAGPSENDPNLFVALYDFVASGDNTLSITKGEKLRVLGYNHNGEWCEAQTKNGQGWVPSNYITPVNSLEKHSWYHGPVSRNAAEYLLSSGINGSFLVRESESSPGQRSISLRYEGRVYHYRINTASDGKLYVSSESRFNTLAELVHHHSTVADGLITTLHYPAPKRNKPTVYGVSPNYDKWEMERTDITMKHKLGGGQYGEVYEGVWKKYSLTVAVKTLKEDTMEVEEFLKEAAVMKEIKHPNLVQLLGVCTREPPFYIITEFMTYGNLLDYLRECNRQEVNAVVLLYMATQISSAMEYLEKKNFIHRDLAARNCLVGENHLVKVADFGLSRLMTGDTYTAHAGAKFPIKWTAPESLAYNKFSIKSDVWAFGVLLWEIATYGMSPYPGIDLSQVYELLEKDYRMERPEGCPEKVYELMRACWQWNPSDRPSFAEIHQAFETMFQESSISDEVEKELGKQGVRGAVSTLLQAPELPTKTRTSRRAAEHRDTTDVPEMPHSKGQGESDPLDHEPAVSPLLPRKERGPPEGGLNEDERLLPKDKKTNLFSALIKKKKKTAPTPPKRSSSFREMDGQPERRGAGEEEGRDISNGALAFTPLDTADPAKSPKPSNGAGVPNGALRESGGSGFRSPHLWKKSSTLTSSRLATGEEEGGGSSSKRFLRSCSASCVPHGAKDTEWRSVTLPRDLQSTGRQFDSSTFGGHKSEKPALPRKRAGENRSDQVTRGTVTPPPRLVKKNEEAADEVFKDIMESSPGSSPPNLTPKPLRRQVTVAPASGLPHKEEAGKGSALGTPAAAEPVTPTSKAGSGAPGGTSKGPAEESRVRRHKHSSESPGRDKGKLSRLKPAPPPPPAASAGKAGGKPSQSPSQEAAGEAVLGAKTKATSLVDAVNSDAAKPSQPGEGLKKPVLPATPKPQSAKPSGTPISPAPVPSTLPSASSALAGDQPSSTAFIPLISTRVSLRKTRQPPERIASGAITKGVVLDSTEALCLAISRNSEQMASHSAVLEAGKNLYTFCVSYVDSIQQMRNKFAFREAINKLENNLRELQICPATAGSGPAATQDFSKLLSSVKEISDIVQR
Chain of proteins of U3A human fibrosarcoma cells (4462 proteins detected) (Homo sapiens, UniProt O95983) (O95983 whole entry): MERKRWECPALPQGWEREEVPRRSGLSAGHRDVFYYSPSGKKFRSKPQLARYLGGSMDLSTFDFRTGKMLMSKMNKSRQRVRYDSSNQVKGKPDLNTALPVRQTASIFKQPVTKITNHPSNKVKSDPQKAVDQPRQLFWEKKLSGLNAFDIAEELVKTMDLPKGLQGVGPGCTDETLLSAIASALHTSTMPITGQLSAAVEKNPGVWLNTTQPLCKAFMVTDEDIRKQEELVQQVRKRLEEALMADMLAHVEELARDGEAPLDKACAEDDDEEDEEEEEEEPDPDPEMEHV
Chain of proteins of U3A human fibrosarcoma cells (4462 proteins detected) (Homo sapiens, UniProt Q8IWX8) (Q8IWX8 whole entry): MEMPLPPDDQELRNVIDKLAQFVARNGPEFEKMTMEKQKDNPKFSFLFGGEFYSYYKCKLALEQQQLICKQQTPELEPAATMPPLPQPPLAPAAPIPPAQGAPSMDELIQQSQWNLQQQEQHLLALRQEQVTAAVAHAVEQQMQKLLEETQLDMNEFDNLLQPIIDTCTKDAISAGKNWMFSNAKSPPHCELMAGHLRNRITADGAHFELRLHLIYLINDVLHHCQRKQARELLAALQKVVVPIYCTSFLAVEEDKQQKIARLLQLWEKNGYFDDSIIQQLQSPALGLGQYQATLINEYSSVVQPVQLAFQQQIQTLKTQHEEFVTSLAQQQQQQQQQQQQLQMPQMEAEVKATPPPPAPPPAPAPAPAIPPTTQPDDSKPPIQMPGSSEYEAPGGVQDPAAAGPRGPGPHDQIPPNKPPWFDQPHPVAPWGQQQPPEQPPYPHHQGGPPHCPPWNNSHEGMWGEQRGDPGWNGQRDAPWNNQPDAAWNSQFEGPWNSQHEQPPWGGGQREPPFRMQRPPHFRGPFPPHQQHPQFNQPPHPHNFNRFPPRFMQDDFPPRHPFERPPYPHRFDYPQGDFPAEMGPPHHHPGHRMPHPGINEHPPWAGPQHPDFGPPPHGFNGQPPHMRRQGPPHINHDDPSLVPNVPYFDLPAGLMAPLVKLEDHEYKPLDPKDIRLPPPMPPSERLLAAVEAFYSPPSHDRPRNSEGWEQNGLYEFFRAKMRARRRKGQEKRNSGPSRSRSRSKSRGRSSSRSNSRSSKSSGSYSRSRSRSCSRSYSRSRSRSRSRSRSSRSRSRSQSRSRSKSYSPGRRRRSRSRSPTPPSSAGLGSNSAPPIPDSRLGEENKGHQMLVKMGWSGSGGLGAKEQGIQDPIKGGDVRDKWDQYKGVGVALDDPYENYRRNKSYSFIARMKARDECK
Chain of proteins of U3A human fibrosarcoma cells (4462 proteins detected) (Homo sapiens, UniProt Q8NCN4) (Q8NCN4 whole entry): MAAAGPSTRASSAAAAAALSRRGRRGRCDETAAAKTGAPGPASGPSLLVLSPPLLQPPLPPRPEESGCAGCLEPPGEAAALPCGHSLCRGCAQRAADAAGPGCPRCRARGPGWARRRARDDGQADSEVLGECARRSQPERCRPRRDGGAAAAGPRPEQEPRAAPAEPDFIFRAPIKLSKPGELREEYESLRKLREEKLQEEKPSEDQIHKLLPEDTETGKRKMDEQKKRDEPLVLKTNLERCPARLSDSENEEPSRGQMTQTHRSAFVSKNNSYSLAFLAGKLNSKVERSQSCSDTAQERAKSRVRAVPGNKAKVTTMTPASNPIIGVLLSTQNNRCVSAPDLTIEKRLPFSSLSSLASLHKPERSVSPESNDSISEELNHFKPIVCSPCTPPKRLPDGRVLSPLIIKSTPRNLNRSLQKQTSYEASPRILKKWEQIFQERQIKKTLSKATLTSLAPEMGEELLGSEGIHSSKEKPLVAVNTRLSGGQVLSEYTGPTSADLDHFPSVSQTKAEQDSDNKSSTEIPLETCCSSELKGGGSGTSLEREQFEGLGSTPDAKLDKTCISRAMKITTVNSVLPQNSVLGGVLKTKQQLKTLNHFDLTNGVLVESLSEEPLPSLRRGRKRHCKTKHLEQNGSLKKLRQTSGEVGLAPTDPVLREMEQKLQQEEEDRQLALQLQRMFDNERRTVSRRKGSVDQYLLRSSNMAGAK
Chain of proteins of U3A human fibrosarcoma cells (4462 proteins detected) (Homo sapiens, UniProt Q99873) (Q99873 whole entry): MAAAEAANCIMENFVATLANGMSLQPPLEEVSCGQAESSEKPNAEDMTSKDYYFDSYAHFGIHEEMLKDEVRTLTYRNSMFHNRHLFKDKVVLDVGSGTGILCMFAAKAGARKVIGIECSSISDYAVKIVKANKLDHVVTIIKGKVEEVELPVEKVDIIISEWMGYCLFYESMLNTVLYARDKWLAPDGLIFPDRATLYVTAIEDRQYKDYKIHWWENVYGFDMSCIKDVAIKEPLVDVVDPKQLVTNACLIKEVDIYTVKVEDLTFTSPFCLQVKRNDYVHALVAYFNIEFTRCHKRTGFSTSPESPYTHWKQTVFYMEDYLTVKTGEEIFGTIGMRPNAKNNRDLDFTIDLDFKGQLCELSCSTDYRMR
Chain of proteins of U3A human fibrosarcoma cells (4462 proteins detected) (Homo sapiens, UniProt P39748) (P39748 whole entry): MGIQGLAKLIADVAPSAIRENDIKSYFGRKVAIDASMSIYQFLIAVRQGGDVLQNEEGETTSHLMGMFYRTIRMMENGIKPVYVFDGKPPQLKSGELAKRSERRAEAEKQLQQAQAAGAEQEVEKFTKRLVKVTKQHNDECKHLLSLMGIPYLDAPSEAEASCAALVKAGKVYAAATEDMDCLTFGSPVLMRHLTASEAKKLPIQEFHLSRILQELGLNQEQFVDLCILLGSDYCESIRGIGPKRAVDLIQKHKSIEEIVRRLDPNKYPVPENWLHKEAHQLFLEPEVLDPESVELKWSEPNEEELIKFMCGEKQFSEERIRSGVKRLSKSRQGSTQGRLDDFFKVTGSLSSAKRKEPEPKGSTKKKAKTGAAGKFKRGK
Chain of proteins of U3A human fibrosarcoma cells (4462 proteins detected) (Homo sapiens, UniProt P49459) (P49459 whole entry): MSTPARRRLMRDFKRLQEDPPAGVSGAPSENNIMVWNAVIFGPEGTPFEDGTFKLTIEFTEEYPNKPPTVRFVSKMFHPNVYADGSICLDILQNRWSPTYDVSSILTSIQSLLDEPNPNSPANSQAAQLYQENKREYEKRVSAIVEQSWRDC
Chain of proteins of U3A human fibrosarcoma cells (4462 proteins detected) (Homo sapiens, UniProt Q8TBF4) (Q8TBF4 whole entry): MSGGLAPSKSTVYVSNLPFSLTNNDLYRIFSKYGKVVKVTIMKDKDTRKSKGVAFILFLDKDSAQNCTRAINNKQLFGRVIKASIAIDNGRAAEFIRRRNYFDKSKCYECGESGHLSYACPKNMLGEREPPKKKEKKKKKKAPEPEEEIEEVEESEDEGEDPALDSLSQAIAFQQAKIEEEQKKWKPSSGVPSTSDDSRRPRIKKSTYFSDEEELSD
Chain of proteins of U3A human fibrosarcoma cells (4462 proteins detected) (Homo sapiens, UniProt P29034) (P29034 whole entry): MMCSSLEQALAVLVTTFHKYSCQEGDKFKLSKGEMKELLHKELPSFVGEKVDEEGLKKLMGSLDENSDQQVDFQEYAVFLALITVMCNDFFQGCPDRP

## CCc1nc(N)nc(N)c1-c1ccc(Cl)cc1 [pyrimethamine]
[1]
  Log2 (PYR/DMSO): -0.04
[2]
  Log2 (PYR/DMSO): 0.13
[3]
  Log2 (PYR/DMSO): 0.20
[4]
  Log2 (PYR/DMSO): -0.03
[5]
  Log2 (PYR/DMSO), KIAA1598: -0.28
[6]
  Log2 (PYR/DMSO): 0.14
[7]
  Log2 (PYR/DMSO): -0.04
[8]
  Log2 (PYR/DMSO): -0.04
[9]
  Log2 (PYR/DMSO): 0.16
[10]
  Log2 (PYR/DMSO): 0.20
[11]
  Log2 (PYR/DMSO): -0.04
[12]
  Log2 (PYR/DMSO), FEN1: 0.23
[13]
  Log2 (PYR/DMSO): -0.04
[14]
  Log2 (PYR/DMSO): -0.04
[15]
  Log2 (PYR/DMSO): -0.05
[16]
  Log2 (PYR/DMSO): 0.17
[17]
  Log2 (PYR/DMSO): 0.15
[18]; U3A cells, vs vehicle
  increased abundance of DHFR in the soluble fraction: 1.7 fold
[18]; protein DHFR, U3A
  Log2 (PYR/DMSO), DHFR: 0.80
[19]
  Log2 (PYR/DMSO): -0.03
[20]
  Log2 (PYR/DMSO): 0.14
[21]
  Log2 (PYR/DMSO): 0.18
[22]
  Log2 (PYR/DMSO): -0.05
[23]
  Log2 (PYR/DMSO): -0.04
[24]
  Log2 (PYR/DMSO): -0.04
[25]
  Log2 (PYR/DMSO): 0.16
[26]
  Log2 (PYR/DMSO): 0.19
[27]
  Log2 (PYR/DMSO): 0.17
[28]
  Log2 (PYR/DMSO): -0.04
[29]
  Log2 (PYR/DMSO): 0.19
[30]
  Log2 (PYR/DMSO): 0.14
